According to patent US9241976B2, “Use of HDL-related molecules to treat and prevent proinflammatory conditions” (THE REGENTS OF THE UNIVERSITY OF CALIFORNIA, priority 2011, dated 2016):

Columns and labels:
[1] = test system: lysophosphatidic acid (LPA); test: Plasma LPA levels in treated mice; format: in vivo, mouse; settings: BALB/c lung tumor mice; 100 mg/kg/d in chow for 3 weeks; vs control mice
Experimental: LPA (20:4) was purchased from Avanti Polar Lipids. LPA levels were determined as described previously (Murph et al., 2007, Methods Enymol 433:1-25).
LPA (20:4) was purchased from Avanti Polar Lipids. LPA levels were determined as described previously (19).

CT26 cells [2] = test: Pulmonary metastasis in vivo: CT26 lung tumors in BALB/c mice; parameters: species or system mouse; settings: CT26 via tail vein, 100 mg/kg/d in chow diet for 3 weeks
Experimental: BALB/c mice were intravenously injected with 2×10^4 CT26 cells in 100 μL of PBS via tail vein injection and the mice were treated with bHDL at 10 mg/kg/day administered SQ for 3 weeks; or treated with bHDL at 100 mg/kg/day administered in a chow diet for 3 weeks. After 3 weeks treatment, the mice were sacrificed; lungs were harvested, weighed and fixed with Bouin's solution (Sigma). Tumor nodules on the lung surface were counted.
BALB/c mice were intravenously injected with 2×10^4 CT26 cells in […] of PBS via tail vein injection and the mice were treated with L-4F or sc-4F at 10 mg/kg/d administered subcutaneously for 3 weeks, or treated with sc-4F or L-4F or G* peptide at 100 mg/kg/d administered in a chow diet for 3 weeks. After 3 weeks treatment, the mice were sacrificed; lungs were harvested, weighed, and fixed with Bouin solution (Sigma). Tumor nodules on the lung surface were counted.

CT26 cells [3] = test: CT26 cell viability, MTS assay; settings: Example 5; CT26 cells, 10 mg/mL, 48 hours
Experimental: CT26 cell line derived from N-nitroso-N-methyl urethane-induced mouse colon carcinoma of BALB/c origin was purchased from the American Type Culture Collection (ATCC). CT26 cells (2,000 cells per well) were first cultured in complete medium in 96-well culture plates, and 24 hours later the medium was replaced with serum free medium. Following an overnight incubation, the cells were either treated with vehicle (control), or treated with 10 μg/mL of either bHDL. The bHDL were dissolved in H2O. Cells were incubated for an additional 48 hours and assayed for viability using the MTS assays kit (Promega) according to the manufacturer's protocol.
CT26 cell line derived from N-nitroso-N-methyl urethane-induced mouse colon carcinoma of BALB/c origin was purchased from the American Type Culture Collection. CT26 cells (2,000 cells per well) were first cultured in complete medium in 96-well culture plates, and 24 hours later the medium was replaced with serum-free medium. Following an overnight incubation, the cells were either treated with vehicle (control) or treated with 10 mg/mL of either L-4F or G* peptide. The peptides were dissolved in H2O. Cells were incubated for an additional 48 hours and assayed for viability using the MTS assay kit (Promega) according to the manufacturer's protocol.

cyclin D1 and cyclin A = test: Western blot of cyclin D1 and cyclin A in CT26 cells; format: cell-based, mouse
Experimental: Total cell proteins were collected after treatment in cell lysis buffer containing 0.1 mol/L NaCl, 5 mmol/L EDTA, 50 mmol/L sodium orthovanadate, 1% Triton X-100, and protease inhibitor tablet in 50 mmol/L Tris buffer (pH 7.5). Twenty micrograms of total proteins were separated by SDS-PAGE and transferred onto nitrocellulose membrane and followed by incubation with primary antibody at 4° C. in 5% skim milk and 0.1% Tween-20. Anti-cyclin D1 and anti-cyclin A rabbit polyclonal antibodies were used at 1:1,000 dilution, and anti-b-actin polyclonal antibody was used at 1:2,000 dilution.

Ac-LVGRQLEEFL-NH2 [G* peptide, Ac-L-V-G-R-Q-L-E-E-F-LNH2]
plasma LPA levels [1]: significantly reduced | lung weights (CT26 cells [2]): 250 mg | tumor numbers on the lung surface (CT26 cells [2]): 10 | Cell viability reduced, compared with control (CT26 cells [3]): approximately 40% | expression of cyclin D1 and cyclin A (cyclin D1 and cyclin A): lower
